The record followed here is patent US10093713B2, “GIP-GLP-1 dual agonist compounds and methods” (priority 2013, dated 2018).

*1 amine or outer side, *2 acyl side, *3 side chain or, on linkers, in order; H or OH if unused. Where a SMILES comes first, the peptide text is derived from it. Side-chain parts run from the residue outwards. [ ]: non-standard residue; d: D form. The star is where a group is joined. C20 diacid = O=C(O)CCCCCCCCCCCCCCCCCCC(=O)*; γGlu = O=C(O)[C@H](CCC(=O)[*:2])N[*:1]; AEEA = NCCOCCOCC(=O)O; Aib = CC(C)(N)C(=O)O

The target of one assay is T1, human GIP R (Homo sapiens, UniProt P48546).
T1 construct: expressed in transfected cells
T1 sequence (P48546 22-466): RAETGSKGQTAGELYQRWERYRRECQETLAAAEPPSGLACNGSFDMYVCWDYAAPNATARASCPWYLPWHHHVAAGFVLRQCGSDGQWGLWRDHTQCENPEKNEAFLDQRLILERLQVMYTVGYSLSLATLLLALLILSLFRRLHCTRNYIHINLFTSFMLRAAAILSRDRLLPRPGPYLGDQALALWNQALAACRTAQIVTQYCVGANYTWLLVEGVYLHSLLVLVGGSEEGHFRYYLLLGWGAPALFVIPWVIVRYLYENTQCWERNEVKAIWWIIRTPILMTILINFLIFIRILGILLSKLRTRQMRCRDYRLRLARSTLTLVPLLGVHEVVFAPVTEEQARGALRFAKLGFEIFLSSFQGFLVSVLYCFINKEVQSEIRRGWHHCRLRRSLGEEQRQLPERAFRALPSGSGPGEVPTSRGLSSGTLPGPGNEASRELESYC
The experiment in a line: Human GIP receptor (GIP R) activity assay, cAMP induction (AlphaScreen) in HEK293 cells. The class given is cell-based. The following applies: Table 3; most comprehensive data; read-out: hGIP-R cAMP EC50 average value. The procedure, abridged: (§1)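 Stable HEK293 clones expressing human GIP R or GLP-1 R, seeded 1 day before; cells washed in Tyrode's buffer (10 mM HEPES, pH 7.4), stimulated, then lysed. cAMP measured by AlphaScreen bead competition (1 h, room temperature, dark). EC50 = concentration giving half-maximal cAMP elevation, from curves of absolute cAMP (nM) vs log concentration.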

In the next assay the target is T2, human GLP-1 R (Homo sapiens, UniProt P43220).
T2 construct: expressed in transfected cells
As to the kind of experiment: Human GLP-1 receptor (GLP-1 R) activity assay, cAMP induction (AlphaScreen) in HEK293 cells. The class given is cell-based. Particulars: Table 3; most comprehensive data; read-out: hGLP-1-R cAMP EC50 average value. The procedure, abridged:
as §1

T2 sequence (P43220 24-463): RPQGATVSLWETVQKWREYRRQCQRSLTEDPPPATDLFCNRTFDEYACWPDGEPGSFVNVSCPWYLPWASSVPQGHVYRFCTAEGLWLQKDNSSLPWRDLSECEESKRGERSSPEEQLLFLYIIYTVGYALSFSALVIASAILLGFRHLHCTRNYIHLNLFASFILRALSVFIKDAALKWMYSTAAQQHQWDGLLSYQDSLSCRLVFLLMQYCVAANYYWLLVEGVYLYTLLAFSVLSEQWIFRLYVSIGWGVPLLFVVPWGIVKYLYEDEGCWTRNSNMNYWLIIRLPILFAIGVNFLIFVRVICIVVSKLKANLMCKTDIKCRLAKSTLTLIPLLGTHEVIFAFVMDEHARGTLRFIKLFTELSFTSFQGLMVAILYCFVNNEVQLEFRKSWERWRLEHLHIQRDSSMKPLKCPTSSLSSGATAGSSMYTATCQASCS

With `CC[C@H](C)[C@H](NC(=O)[C@H](CO)NC(=O)[C@H](Cc1ccc(O)cc1)NC(=O)[C@H](CC(=O)O)NC(=O)[C@H](CO)NC(=O)[C@@H](NC(=O)[C@H](Cc1ccccc1)NC(=O)[C@@H](NC(=O)CNC(=O)[C@H](CCC(=O)O)NC(=O)C(C)(C)NC(=O)[C@@H](N)Cc1ccc(O)cc1)[C@@H](C)O)[C@@H](C)O)C(=O)N[C@@H](C)C(=O)N[C@@H](CC(C)C)C(=O)N[C@@H](CC(=O)O)C(=O)N[C@@H](CCC(=O)O)C(=O)N[C@@H](CCCCNC(=O)COCCOCCNC(=O)COCCOCCNC(=O)CC[C@H](NC(=O)CCCCCCCCCCCCCCCCCCC(=O)O)C(=O)O)C(=O)N[C@@H](C)C(=O)N[C@@H](CCC(N)=O)C(=O)N[C@@H](CCCNC(=N)N)C(=O)N[C@@H](C)C(=O)N[C@@H](Cc1ccccc1)C(=O)N[C@H](C(=O)N[C@@H](CCC(=O)O)C(=O)N[C@@H](Cc1c[nH]c2ccccc12)C(=O)N[C@@H](CC(C)C)C(=O)N[C@@H](CC(C)C)C(=O)N[C@@H](C)C(=O)N[C@@H](CCC(N)=O)C(=O)NCC(=O)N1CCC[C@H]1C(=O)N[C@@H](CO)C(=O)N[C@@H](CO)C(=O)NCC(=O)N[C@@H](C)C(=O)N1CCC[C@H]1C(=O)N1CCC[C@H]1C(=O)N1CCC[C@H]1C(=O)N[C@@H](CO)C(N)=O)C(C)C` [Compound 43] (H-Y[Aib]EGTFTSDYSIALDEK([AEEA-AEEA-γGlu-C20 diacid])AQRAFVEWLLAQGPSSGAPPPS-NH2), the 50% effective concentration (EC50) on human GIP R is 5 pM; on human GLP-1 R, 16 pM.
The matching figures for `CC[C@H](C)[C@H](NC(=O)[C@H](CO)NC(=O)[C@H](Cc1ccc(O)cc1)NC(=O)[C@H](CC(=O)O)NC(=O)[C@H](CO)NC(=O)[C@@H](NC(=O)[C@H](Cc1ccccc1)NC(=O)[C@@H](NC(=O)CNC(=O)[C@H](CCC(=O)O)NC(=O)C(C)(C)NC(=O)[C@@H](N)Cc1ccc(O)cc1)[C@@H](C)O)[C@@H](C)O)C(=O)N[C@@H](C)C(=O)N[C@@H](CC(C)C)C(=O)N[C@@H](CC(=O)O)C(=O)N[C@@H](CCC(=O)O)C(=O)N[C@@H](CCCCNC(=O)COCCOCCNC(=O)COCCOCCNC(=O)CC[C@H](NC(=O)CCCCCCCCCCCCCCCCCCC(=O)O)C(=O)O)C(=O)N[C@@H](C)C(=O)N[C@@H](CCC(N)=O)C(=O)N[C@@H](CCCNC(=N)N)C(=O)N[C@@H](C)C(=O)N[C@@H](Cc1ccccc1)C(=O)N[C@H](C(=O)N[C@@H](CCC(=O)O)C(=O)N[C@@H](Cc1c[nH]c2ccccc12)C(=O)N[C@@H](CC(C)C)C(=O)N[C@@H](CC(C)C)C(=O)N[C@@H](C)C(=O)N[C@@H](C)C(=O)NCC(=O)N1CCC[C@H]1C(=O)N[C@@H](CO)C(=O)N[C@@H](CO)C(=O)NCC(=O)N[C@@H](C)C(=O)N1CCC[C@H]1C(=O)N1CCC[C@H]1C(=O)N1CCC[C@H]1C(=O)N[C@@H](CO)C(N)=O)C(C)C` [Compound 44] (H-Y[Aib]EGTFTSDYSIALDEK([AEEA-AEEA-γGlu-C20 diacid])AQRAFVEWLLAAGPSSGAPPPS-NH2): 7 pM and 15 pM.
With `CC[C@H](C)[C@H](NC(=O)[C@H](CO)NC(=O)[C@H](Cc1ccc(O)cc1)NC(=O)[C@H](CC(=O)O)NC(=O)[C@H](CO)NC(=O)[C@@H](NC(=O)[C@H](Cc1ccccc1)NC(=O)[C@@H](NC(=O)CNC(=O)[C@H](CCC(=O)O)NC(=O)C(C)(C)NC(=O)[C@@H](N)Cc1ccc(O)cc1)[C@@H](C)O)[C@@H](C)O)C(=O)N[C@@H](C)C(=O)N[C@@H](CC(C)C)C(=O)N[C@@H](CC(=O)O)C(=O)N[C@@H](CCCCN)C(=O)N[C@@H](CCCCNC(=O)COCCOCCNC(=O)COCCOCCNC(=O)CC[C@H](NC(=O)CCCCCCCCCCCCCCCCCCC(=O)O)C(=O)O)C(=O)N[C@@H](C)C(=O)N[C@@H](CCC(N)=O)C(=O)N[C@@H](CCCCN)C(=O)N[C@@H](C)C(=O)N[C@@H](Cc1ccccc1)C(=O)N[C@H](C(=O)N[C@@H](CCC(=O)O)C(=O)N[C@@H](Cc1c[nH]c2ccccc12)C(=O)N[C@@H](CC(C)C)C(=O)N[C@@H](CC(C)C)C(=O)N[C@@H](C)C(=O)N[C@@H](C)C(=O)NCC(=O)N1CCC[C@H]1C(=O)N[C@@H](CO)C(=O)N[C@@H](CO)C(=O)NCC(=O)N[C@@H](C)C(=O)N1CCC[C@H]1C(=O)N1CCC[C@H]1C(=O)N1CCC[C@H]1C(=O)N[C@@H](CO)C(N)=O)C(C)C` [Compound 45] (H-Y[Aib]EGTFTSDYSIALDKK([AEEA-AEEA-γGlu-C20 diacid])AQKAFVEWLLAAGPSSGAPPPS-NH2), the EC50 came out at 5 pM on human GIP R and 24 pM on human GLP-1 R.
In the case of `CC[C@H](C)[C@H](NC(=O)[C@H](CO)NC(=O)[C@H](Cc1ccc(O)cc1)NC(=O)[C@H](CC(=O)O)NC(=O)[C@H](CO)NC(=O)[C@@H](NC(=O)[C@H](Cc1ccccc1)NC(=O)[C@@H](NC(=O)CNC(=O)[C@H](CCC(=O)O)NC(=O)C(C)(C)NC(=O)[C@@H](N)Cc1ccc(O)cc1)[C@@H](C)O)[C@@H](C)O)C(=O)N[C@@H](Cc1ccc(O)cc1)C(=O)N[C@@H](CC(C)C)C(=O)N[C@@H](CC(=O)O)C(=O)N[C@@H](CCCCN)C(=O)N[C@@H](CCCCNC(=O)COCCOCCNC(=O)COCCOCCNC(=O)CC[C@H](NC(=O)CCCCCCCCCCCCCCCCCCC(=O)O)C(=O)O)C(=O)N[C@@H](C)C(=O)N[C@@H](CCC(N)=O)C(=O)N[C@@H](CCCNC(=N)N)C(=O)N[C@@H](CCC(=O)O)C(=O)N[C@@H](Cc1ccccc1)C(=O)N[C@H](C(=O)N[C@@H](CCC(=O)O)C(=O)N[C@@H](Cc1c[nH]c2ccccc12)C(=O)N[C@@H](CC(C)C)C(=O)N[C@@H](CC(C)C)C(=O)N[C@@H](C)C(=O)N[C@@H](CCC(N)=O)C(=O)NCC(=O)N1CCC[C@H]1C(=O)N[C@@H](CO)C(=O)N[C@@H](CO)C(=O)NCC(=O)N[C@@H](C)C(=O)N1CCC[C@H]1C(=O)N1CCC[C@H]1C(=O)N1CCC[C@H]1C(=O)N[C@@H](CO)C(N)=O)C(C)C` [Compound 46] (H-Y[Aib]EGTFTSDYSIYLDKK([AEEA-AEEA-γGlu-C20 diacid])AQREFVEWLLAQGPSSGAPPPS-NH2), the half-maximal effective concentration (EC50) came to 6 pM on human GIP R and 10 pM on human GLP-1 R.
As to `CC[C@H](C)[C@H](NC(=O)[C@H](CO)NC(=O)[C@H](Cc1ccc(O)cc1)NC(=O)[C@H](CC(=O)O)NC(=O)[C@H](CO)NC(=O)[C@@H](NC(=O)[C@H](Cc1ccccc1)NC(=O)[C@@H](NC(=O)CNC(=O)[C@H](CCC(=O)O)NC(=O)C(C)(C)NC(=O)[C@@H](N)Cc1ccc(O)cc1)[C@@H](C)O)[C@@H](C)O)C(=O)N[C@@H](C)C(=O)N[C@@H](CC(C)C)C(=O)N[C@@H](CC(=O)O)C(=O)N[C@@H](CCCCN)C(=O)N[C@@H](CCCCNC(=O)COCCOCCNC(=O)COCCOCCNC(=O)CC[C@H](NC(=O)CCCCCCCCCCCCCCCCCCC(=O)O)C(=O)O)C(=O)N[C@@H](C)C(=O)N[C@@H](CCC(N)=O)C(=O)N[C@@H](CCCNC(=N)N)C(=O)N[C@@H](CCC(=O)O)C(=O)N[C@@H](Cc1ccccc1)C(=O)N[C@H](C(=O)N[C@@H](CCC(=O)O)C(=O)N[C@@H](Cc1c[nH]c2ccccc12)C(=O)N[C@@H](CC(C)C)C(=O)N[C@@H](CC(C)C)C(=O)N[C@@H](C)C(=O)N[C@@H](CCC(N)=O)C(=O)NCC(=O)N1CCC[C@H]1C(=O)N[C@@H](CO)C(=O)N[C@@H](CO)C(=O)NCC(=O)N[C@@H](C)C(=O)N1CCC[C@H]1C(=O)N1CCC[C@H]1C(=O)N1CCC[C@H]1C(=O)N[C@@H](CO)C(N)=O)C(C)C` [Compound 47] (H-Y[Aib]EGTFTSDYSIALDKK([AEEA-AEEA-γGlu-C20 diacid])AQREFVEWLLAQGPSSGAPPPS-NH2), the half-maximal effective concentration (EC50) on human GIP R came to 5 pM; on human GLP-1 R, 16 pM.
